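Interpolation was linear, between the two tested concentrations surrounding the appropriate level; five concentrations were tested over 48 hours in 96-well plates. Definition used: TGI = concentration required for complete inhibition of growth.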
How the values were obtained:
Assay in all cases: inhibition of tumour cell growth, NCI panel, 48 h
[1] = test system: OVCAR-8 ovarian
[2] = test system: SF-295 CNS
[3] = test system: SK-OV-3 ovarian
[4] = test system: NCI-H522 lung
[5] = test system: HT29 colon
[6] = test system: RPMI-8226 leukemia
[7] = test system: SF-268 CNS
[8] = test system: OVCAR-5 ovarian
[9] = test system: SK-MEL-5 melanoma
[10] = test system: COLO 205 colon
[11] = test system: BT-549 breast
[12] = test system: CCRF-CEM leukemia
[13] = test system: DU-145 prostate
[14] = test system: HCT-116 colon
[15] = test system: MDA-MB-435
[16] = test system: SF-539 CNS
[17] = test system: SN12C renal
[18] = test system: TK-10 renal
[19] = test system: KM12 colon
[20] = test system: SK-MEL-2 melanoma
[21] = test system: NCI/ADR-RES ovarian
[22] = test system: MCF7 breast
[23] = test system: MDA-MB-231 breast
[24] = test system: 786-0 renal
[25] = test system: NCI-H226 lung
[26] = test system: OVCAR-4 ovarian
[27] = test system: PC-3 prostate
[28] = test system: NCI-H460 lung
[29] = test system: HOP-92 NSCLC
[30] = test system: T-47D breast
[31] = test system: MDA-N
[32] = test system: MOLT-4 leukemia
[33] = test system: A498 renal
[34] = test system: UACC-257 melanoma
[35] = test system: HOP-62 NSCLC
[36] = test system: K-562 leukemia
[37] = test system: UO-31 renal
[38] = test system: RXF 393 renal
[39] = test system: NCI-H23 lung
[40] = test system: SNB-19 CNS
[41] = test system: LOX IMVI melanoma
[42] = test system: MALME-3M melanoma
[43] = test system: SK-MEL-28 melanoma
[44] = test system: HCT-15 colon
[45] = test system: A549 NSCLC
[46] = test system: SR leukemia
[47] = test system: OVCAR-3 ovarian
[48] = test system: HL-60(TB) leukemia
[49] = test system: SNB-75 CNS
[50] = test system: IGROV1 ovarian
[51] = test system: UACC-62 melanoma
[52] = test system: M14 melanoma
[53] = test system: U251 CNS
[54] = test system: CAKI-1 renal
[55] = test system: SW-620 colon
[56] = test system: EKVX NSCLC
[57] = test system: ACHN renal

## Cc1c2cccc-2ccc2c1[nH]c1ccccc12
[1]
  TGI: 7.07 µM
[2]
  TGI: 5.62 µM
[3]
  TGI: 11 µM
[4]
  TGI: 3.9 µM
[5]
  TGI: 14.4 µM
[6]
  TGI: 8.28 µM
[7]
  TGI: 4 µM
[8]
  TGI: 4.77 µM
[9]
  TGI: 3.34 µM
[10]
  TGI: 3.68 µM
[11]
  TGI: 9.56 µM
[12]
  TGI: > 26.1 µM
[13]
  TGI: 15.7 µM
[14]
  TGI: 4.96 µM
[15]
  TGI: 4.68 µM
[16]
  TGI: 3.42 µM
[17]
  TGI: 7.01 µM
[18]
  TGI: 4.92 µM
[19]
  TGI: 5.57 µM
[20]
  TGI: 3.39 µM
[21]
  TGI: > 27.3 µM
[22]
  TGI: 12.9 µM
[23]
  TGI: 3.48 µM
[24]
  TGI: 10.1 µM
[25]
  TGI: 3.92 µM
[26]
  TGI: 5.09 µM
[27]
  TGI: 3.45 µM
[28]
  TGI: 3.57 µM
[29]
  TGI: 7.75 µM
[30]
  TGI: 8.45 µM
[31]
  TGI: 4.15 µM
[32]
  TGI: 28.2 µM
[33]
  TGI: 28.5 µM
[34]
  TGI: 3.12 µM
[35]
  TGI: 12.9 µM
[36]
  TGI: 11 µM
[37]
  TGI: 3.14 µM
[38]
  TGI: 9.42 µM
[39]
  TGI: 8.99 µM
[40]
  TGI: 10.3 µM
[41]
  TGI: 6.41 µM
[42]
  TGI: 4.03 µM
[43]
  TGI: 3.67 µM
[44]
  TGI: 9.01 µM
[45]
  TGI: 5.65 µM
[46]
  TGI: 18.9 µM
[47]
  TGI: 6.03 µM
[48]
  TGI: 9.38 µM
[49]
  TGI: 4.33 µM
[50]
  TGI: 5.77 µM
[51]
  TGI: 3.79 µM
[52]
  TGI: 3.7 µM
[53]
  TGI: 3.17 µM
[54]
  TGI: 19.3 µM
[55]
  TGI: 7.68 µM
[56]
  TGI: 3.68 µM
[57]
  TGI: 3.2 µM
